The target of the assay is T1, dopamine D4 receptor (Homo sapiens, UniProt P21917).
T1 construct: expressed in transfected cells; host or cells: CHO (Chinese Hamster Ovary) cells, D4-CHO, crude membranes
T1 sequence (P21917 1-419): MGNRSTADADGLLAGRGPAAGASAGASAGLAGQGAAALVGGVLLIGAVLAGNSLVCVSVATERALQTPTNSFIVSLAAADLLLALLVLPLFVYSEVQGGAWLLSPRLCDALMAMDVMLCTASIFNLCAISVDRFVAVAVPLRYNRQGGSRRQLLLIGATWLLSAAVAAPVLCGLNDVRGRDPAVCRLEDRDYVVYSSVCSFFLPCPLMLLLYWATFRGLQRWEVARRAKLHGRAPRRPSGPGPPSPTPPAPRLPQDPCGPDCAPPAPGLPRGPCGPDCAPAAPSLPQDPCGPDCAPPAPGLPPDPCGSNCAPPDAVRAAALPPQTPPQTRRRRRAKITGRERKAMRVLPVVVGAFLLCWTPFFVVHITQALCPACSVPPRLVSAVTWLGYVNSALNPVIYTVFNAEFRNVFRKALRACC
In words: binding behaviour at the dopamine D4 receptor, [3H]-spiperone displacement in D4-CHO cell membranes. The method, then: The compounds were characterized by their binding behaviour at the D4 receptor.
CHO cells (Chinese Hamster Ovary) were used in the test. Crude membranes were isolated by ultracentrifugation from D4 -CHO and D2 -CHO cells and were stored at -80° C. After thawing and homogenizing in a buffer solution (50 mM Tris, 1 mM EDTA, 5 mM KCl, 1.5 mM CaCl2, 4 mM MgCl2, pH 7.4) they were incubated at room temperature for 90 minutes with 200 pM [3H]-spiperone and an increasing concentration (1×10^-11 M to 1×10^-4 M) of the test compound. A non-specific binding was established by incubating in the presence of 1×10^-5 M (+)-butaclamol. The unbound radioligand was removed by filtration through a GF/C glass filter and the bound radioactivity was determined by scintillation in a Packard TopCount.
It was determined using :^3 H-spiperone. The calculation of the value was effected with ligand.

Setting [1] is: [3H]-spiperone 200 pM, crude membranes of D4-CHO cells, room temperature, 90 minutes, pH 7.4, non-specific binding with 1×10^-5 M (+)-butaclamol, read-out: Affinity to dopamine D4 receptors, Ki.

Where two headings read alike, the source gives them in different places.

In the case of `Cc1ncc(CN2CCN(c3ccc(Cl)cc3)CC2)c(N)n1` [Example 3, 5-[4-(4-Chloro-phenyl)-piperazin-1-ylmethyl]-2-methyl-pyrimidin-4-ylamine], the Ki under setting [1] was found to be 33 nM.
Take `Cc1ncc(CN2CCN(c3cccc(Cl)c3)CC2)c(N)n1` [Example 7, 5-[4-(3-chloro-phenyl)-piperazin-1-ylmethyl]-2-methyl-pyrimidin-4-ylamine]: the Ki under setting [1] worked out at 28 nM.
The compound `Cc1ncc(CN2CC=C(c3ccccc3)CC2)c(N)n1` [Example 14, 5-(4-Phenyl-3,6-dihydro-2H-pyridin-1-ylmethyl)-2-methyl-pyrimidin-4-ylamine] returned an inhibition constant Ki of 8.3 nM.
In the case of `Cc1ncc(CN2CC=C(c3ccc(F)cc3)CC2)c(N)n1` [Example 15, 5-[4-(4-Fluoro-phenyl)-3,6-dihydro-2H-pyridin-1-ylmethyl]-2-methyl-pyrimidin-4-ylamine], the affinity corresponds to a Ki of 9.3 nM.
Consider `Cc1ncc(CN2CC=C(c3ccc(Cl)cc3)CC2)c(N)n1` [Example 16, 5-[4-(4-chloro-phenyl)-3,6-dihydro-2H-pyridin-1-ylmethyl]-2-methyl-pyrimidin-4-ylamine], for which the Ki is 4.7 nM.
`COc1ccc(C2=CCN(Cc3cnc(C)nc3N)CC2)cc1` [Example 17, 5-[4-(4-Methoxy-phenyl)-3,6-dihydro-2H-pyridin-1-ylmethyl]-2-methyl-pyrimidin-4-ylamine] came in with a Ki of 5.4 nM.
For `Cc1ncc(CN2CCc3cc(-c4ccccc4)ccc3C2)c(N)n1` [Example 19, 2-Methyl-5-(6-phenyl-3,4-dihydro-1H-isoquinolin-2-ylmethyl)-pyrimidin-4-ylamine], the Ki under setting [1] came out at 0.4 nM.
The same measure, in the same setting: with `Cc1ncc(CN2CCc3ccc(-c4ccccc4)cc3C2)c(N)n1` [Example 21, 2-Methyl-5-(7-phenyl-3,4-dihydro-1H-isoquinolin-2-ylmethyl)-pyrimidin-4-ylamine] the figure was 6.2 nM; with `Cc1ncc(CN2CCc3ccc(OCc4ccccc4)cc3C2)c(N)n1` [Example 22, 5-(7-benzyloxy-3,4-dihydro-1H-isoquinolin-2-ylmethyl)-2-methyl-pyrimidin-4-ylamine], 23 nM.
The compound `Cc1ncc(CN2CCC3=C(CCCC3)C2)c(N)n1` [Example 24, 5-(3,4,5,6,7,8-Hexahydro-1H-isoquinolin-2-ylmethyl)-2-methyl-pyrimidin-4-ylamine] registered a Ki of 7.8 nM.
Consider `Cc1ncc(CN2CC=C(CCc3ccccc3)CC2)c(N)n1` [Example 28, 2-Methyl-5-(4-phenethyl-3,6-dihydro-2H-pyridin-1-ylmethyl)-pyrimidin-4-ylamine], for which the Ki under setting [1] stood at 1.3 nM.
Consider `Cc1ncc(CN2CC=C(/C=C/c3ccccc3)CC2)c(N)n1` [Example 29, (E)-2-Methyl-5-(4-styryl-3,6-dihydro-2H-pyridin-1-ylmethyl)-pyrimidin-4-ylamine], for which the Ki under setting [1] was determined as 0.9 nM.
Same read-out and setting: with `CCCc1ncc(CN2CCN(c3ccccc3OC)CC2)c(N)n1` [Example 33, 5-[4-(2-Methoxy-phenyl)-piperazin-1-ylmethyl]-2-propyl-pyrimidin-4-ylamine] the figure was 14 nM; with `COc1ccccc1N1CCN(Cc2cnc(N)nc2N)CC1` [Example 41, 5-[4-(2-Methoxy-phenyl)-piperazin-1-ylmethyl]-pyrimidine-2,4-diamine], 30 nM.
For `Nc1ncc(CN2CC=C(c3ccccc3)CC2)c(N)n1` [Example 42, 5-(4-Phenyl-3,6-dihydro-2H-pyridin-1-ylmethyl)-pyrimidine-2,4-diamine], the Ki was 14 nM.

Values taken from US5688798A, “Pyrimidine compounds” (Hoffmann-La Roche Inc., priority 1995, dated 1997).
